Values of other authors, collected in US20080233219A1, “Composition for diet comprising plant essential oil as active ingredient, sheet type composition for diet comprising thereof, percutaneous pharmaceutical agent for diet comprising thereof, and method for producing thereof” (NATURE TECHNOLOGY INC., priority 2005, published 2008).

What was measured:
[1] = in three month
[2] = in vivo

For OC1(c2ccc(Cl)cc2)c2ccccc2C2=NCCN21 (centres unmarked) [Mazindol], the “gradual weight loss, average” value [1] is listed as “about 4.5 kg” and the side effects [2] is listed as “not serious ones except cotton mouth, astriction, indigestible feeling”.
